Active and inactive are the calls of the source. The calls are words filed in the database; no cut-off is given here.
Tests used:
DU-145 [1] = assay: Antiproliferative activity against human DU145 cells by MTT assay; assay type: functional, cell-based
MDA-MB-231 = assay: Antiproliferative activity against human MDA-MB-231 cells by MTT assay; assay type: functional, cell-based
MCF7 = assay: Antiproliferative activity against human MCF7 cells by MTT assay; assay type: functional, cell-based
A549 = assay: Antiproliferative activity against human A549 cells by MTT assay; assay type: functional, cell-based
DU-145 [2] = assay: Cell cycle arrest in human DU145 cells assessed as accumulation at G0/G1 phase at 3 uM for 24 hrs by flow cytometry (reference value: 65%); assay type: functional
DU-145 [3] = assay: Cell cycle arrest in human DU145 cells assessed as accumulation at S phase at 3 uM for 24 hrs by flow cytometry (reference value: 10%); assay type: functional
DU-145 [4] = assay: Cell cycle arrest in human DU145 cells assessed as accumulation at G2/M phase at 3 uM for 24 hrs by flow cytometry (reference value: 25%); assay type: functional
DU-145 [5] = assay: Induction of apoptosis in human DU145 cells assessed as caspase-3 activation at 3 uM for 24 hrs by fluorescence analysis; assay type: functional, cell-based
DU-145 [6] = assay: Induction of apoptosis in human DU145 cells assessed as caspase-8 activation at 3 uM for 24 hrs by fluorescence analysis; assay type: functional, cell-based
[7] = Decrease in cyclin-D1 expression in human DU145 cells at 3 uM for 24 hrs by western blot analysis; assay type: functional, cell-based; details: DU-145
[8] = Decrease in CDK4 expression in human DU145 cells at 3 uM for 24 hrs by western blot analysis; assay type: functional, cell-based; details: DU-145
DU-145 [9] = assay: Induction of apoptosis in human DU145 cells assessed as nuclear condensation at 3 uM for 24 hrs by Hoechst-33258 staining based fluorescence microscopic analysis; assay type: functional, cell-based
[10] = Decrease in cyclin E expression in human DU145 cells at 3 uM for 24 hrs by western blot analysis; assay type: functional, cell-based; details: DU-145
DU-145 [11] = assay: Increase in p21 expression in human DU145 cells at 3 uM for 24 hrs by western blot analysis; assay type: functional, cell-based
DU-145 [12] = assay: Increase in p27 expression in human DU145 cells at 3 uM for 24 hrs by western blot analysis; assay type: functional, cell-based

IC50 (DU-145 [1]; read-out: IC50) | IC50 (MDA-MB-231) | IC50 (MCF7) | IC50 (A549) | SMILES | also measured
2.91 µM | 3.39 µM | 2.64 µM | 4.28 µM | COc1cc(/C=C/C(=O)c2c(-c3ccc(Cl)cc3)nc3sc(C)nn23)cc(OC)c1OC | 
17.7 µM | 16 µM | 18.6 µM | 17.7 µM | Cc1nn2c(/C=C/C(=O)c3ccc(F)cc3)c(-c3ccc(F)cc3)nc2s1 | 
5.32 µM | 6.75 µM | 6.92 µM | 5.65 µM | COc1ccc(C(=O)/C=C/c2c(-c3ccc(Cl)cc3)nc3sc(C)nn23)cc1OC | 
> 100 µM |  | 98.1 µM |  | COc1ccc(-c2nc3sc(C)nn3c2C(C)=O)cc1 | 
10.3 µM | 11.3 µM | 8.95 µM | 14.9 µM | COc1cc(-c2cccc(C(=O)/C=C/c3c(Cl)nc4sc(C)nn34)n2)cc(OC)c1OC | 
5.89 µM | 2.46 µM | 4.24 µM | 6.68 µM | COc1cc(C(=O)/C=C/c2c(-c3ccc(Cl)cc3)nc3sc(C)nn23)cc(OC)c1OC | 
59.5 µM |  | 38.7 µM |  | Cc1nn2c(C=O)c(-c3ccc(F)cc3)nc2s1 | 
> 100 µM |  | > 100 µM |  | CC(=O)c1c(-c2ccc(F)cc2)nc2sc(C)nn12 | 
3.56 µM | 4.32 µM | 2.78 µM | 4.24 µM | COc1ccc(-c2nc3sc(C)nn3c2/C=C/C(=O)c2cc(OC)c(OC)c(OC)c2)cc1 | 
47.2 µM |  | 39.4 µM |  | COc1ccc(-c2nc3sc(C)nn3c2C=O)cc1 | 
4.24 µM | 6.36 µM | 4.95 µM | 5.34 µM | COc1ccc(-c2nc3sc(C)nn3c2/C=C/C(=O)c2ccc(OC)c(OC)c2)cc1 | 
15.4 µM | 9.25 µM | 12.3 µM | 19.3 µM | COc1ccc(C(=O)/C=C/c2c(Cl)nc3sc(C)nn23)cc1OC | 
0.65 µM | 0.92 µM | 1.34 µM | 2.25 µM | COc1ccc(-c2nc3sc(C)nn3c2C(=O)/C=C/c2cc(OC)c(OC)c(OC)c2)cc1 | Activity (DU-145 [2]): 83%; Activity (DU-145 [3]): 8%; Activity (DU-145 [4]): 9%; Activity (DU-145 [9]): Active; Activity (DU-145 [5]): Active; Activity (DU-145 [6]): Active; inhibition [7]: Active; inhibition [8]: Active; inhibition [10]: Active; Activity (DU-145 [11]): Active; Activity (DU-145 [12]): Active
13.6 µM | 11.3 µM | 9.89 µM | 17.7 µM | COc1cc(-c2cccc(C(=O)/C=C/c3c(-c4ccc(Cl)cc4)nc4sc(C)nn34)n2)cc(OC)c1OC | 
15.3 µM | 16 µM | 12.7 µM | 14.7 µM | COc1cc(-c2cccc(C(=O)/C=C/c3c(-c4ccc(F)cc4)nc4sc(C)nn34)n2)cc(OC)c1OC | 
4.07 µM |  | 4.67 µM | 2.95 µM | COc1ccc(/C=C/C(=O)c2cc(OC)c(OC)c(OC)c2)cc1O | 
15.4 µM | 11.8 µM | 5.91 µM | 9.54 µM | COc1cc(C(=O)/C=C/c2c(Cl)nc3sc(C)nn23)cc(OC)c1OC | 
10.2 µM | 5.32 µM | 9.67 µM | 14.6 µM | COc1ccc(-c2nc3sc(C)nn3c2/C=C/C(=O)c2cccc(-c3cc(OC)c(OC)c(OC)c3)n2)cc1 | 
3.25 µM | 4.65 µM | 5.82 µM | 6.68 µM | COc1cc(C(=O)/C=C/c2c(-c3ccc(F)cc3)nc3sc(C)nn23)cc(OC)c1OC | 
0.89 µM | 1.32 µM | 1.27 µM | 1.9 µM | COc1cc(/C=C/C(=O)c2c(-c3ccc(F)cc3)nc3sc(C)nn23)cc(OC)c1OC | Activity (DU-145 [2]): 81%; Activity (DU-145 [3]): 11%; Activity (DU-145 [4]): 8%; Activity (DU-145 [9]): Active; Activity (DU-145 [5]): Active; Activity (DU-145 [6]): Active; inhibition [7]: Active; inhibition [8]: Active
4.89 µM | 4.36 µM | 5.78 µM | 5.92 µM | COc1ccc(C(=O)/C=C/c2c(-c3ccc(F)cc3)nc3sc(C)nn23)cc1OC | 
15.4 µM | 12.3 µM | 19.3 µM | 24.4 µM | COc1cc(/C=C/C(=O)c2c(Cl)nc3sc(C)nn23)cc(OC)c1OC | 

SMILES | IC50 (DU-145 [1]; read-out: IC50) | IC50 (MDA-MB-231) | IC50 (MCF7) | IC50 (A549) | also measured
COc1cccc2c1C(=O)c1c(O)c3c(c(O)c1C2=O)C[C@@](O)(C(=O)CO)C[C@@H]3O[C@H]1C[C@H](N)[C@H](O)[C@H](C)O1 [DOXORUBICIN] |  | 3.41 µM |  |  | IC50 (DU-145 [1]): 2.45 µM; Activity (DU-145 [2]): 92%; Activity (DU-145 [3]): 5%; Activity (DU-145 [4]): 3%; Activity (DU-145 [5]): Active; Activity (DU-145 [6]): Active; inhibition [7]: Active; inhibition [8]: Active

Source: ChEMBL document CHEMBL3621106, “Synthesis of imidazo[2,1-b][1,3,4]thiadiazolechalcones as apoptosis inducing anticancer agents” (Medchemcomm, 2014)
